# Results from patent publication US8680052B1, “Methods of treating, reducing the incidence of, and/or preventing ischemic events” (The Medicines Company, priority 2013, dated 2014).
# Test system: platelets
# Assay: Example 4: light transmission aggregometry (LTA) induced by 5 and 20 μM ADP
# Format: in vivo, human
# Protocol: The study involved 12 patients who met the criteria of being 18-75 years of age, having coronary artery disease (CAD) documented by a previous MI or coronary revascularization, and taking 81 mg of aspirin daily. […] Prohibited concomitant medications included strong and potent CYP3A inhibitors, simvastatin and lovastatin at doses more than 40 mg/day, omeprazole or esomeprazole, and digoxin. Use of non-steroidal anti-inflammatory agents was discouraged during study participation but not prohibited.
# Each patient was administered a 30 μg/kg bolus of cangrelor followed immediately by a 2 hr infusion at a rate of 4.0 μg/kg/min. A loading dose of ticagrelor (180 mg) was given after 0.5 hr or 1.25 hr (n=6 for each). Blood for pharmacodynamic platelet function studies was taken after 0.5 or 1.25 hr (corresponding to the time of ticagrelor load, n=6 for each), and then at 1.75, 2, 2.25, 2.5, 2.75, 3, 4, and 5.25 hr. Patients were assigned randomly to receive either 6 (n=6) or 7 (n=6) doses of ticagrelor to be taken every 12 hours following the discontinuation of the infusion of cangrelor. On study day 5, each patient was administered a 30 μg/kg bolus of cangrelor followed immediately by a 2 hr infusion at a rate of 4.0 μg/kg/min. Blood for pharmacodynamic assessment was taken after 1 and 2 hr. Adverse events were queried throughout study participation that ended with a telephone interview performed on study day 10-12.
# Pharmacodynamic assessment included light transmission aggregometry (LTA), VerifyNow® P2Y12 assay, vasodilator-stimulated phosphoprotein (VASP) index, and platelet activation measured with the use of flow cytometry. Assessment of LTA, VerifyNow®, and platelet activation with the use of flow cytometry was performed within 30 min of blood being taken. In the case of flow cytometry, samples were processed to fixation and then batched for analysis. For VASP, index samples were batched and processed as recommended by the vendor within 2 h of blood being taken. This approach limited the time from fixation of VASP index to flow analysis to less than 1 h.
# LTA induced by 5 μM and 20 μM adenosine diphosphate (ADP) was quantified ex vivo (i.e. in non-adjusted platelet rich plasma). Platelet-poor plasma was set as 100% aggregation, and both maximal (peak) and terminal (at 300 s) aggregation were measured with a PAP4 aggregometer (BioData, Horsham, Pa.). VerifyNow® P2Y12 assay (Accumetrics Inc, San Diego, Calif.) that measures the effects of drugs on the P2Y12 receptor by activating platelets with prostaglandin El in addition to ADP was used in accordance with the instructions provided by the manufacturer. Platelet reactivity was expressed in P2Y12 reaction units (PRU). Activation of platelets was identified with the use of flow cytometry as previously described.^17. And to determine the VASP index, a commercially available kit (Diagnostica Stago, Inc, Parsippany NJ) was used. ^17 Schneider D J, Sobel B E. Streamlining the design of promising clinical trials: in-vitro testing of antithrombotic regimens and multiple agonists of platelet activation. Coron Artery Dis. 2009; 20:175-8.
# [1] = reference 5.25 h, Ticagrelor at 0.5 h
# [2] = reference 5.25 h, Ticagrelor at 1.25 h
# [3] = ticagrelor at 0.5 hr, 1.75 hr later (at 2.25 hr)
# [4] = ticagrelor at 1.25 hr, 1.75 hr after the loading dose (at 3.0 hr)
smiles,measurement,setting,value
CCCSc1nc(N[C@@H]2C[C@H]2c2ccc(F)c(F)c2)c2nnn([C@@H]3C[C@H](OCCO)[C@@H](O)[C@H]3O)c2n1 [ticagrelor],"IPA, 5 μM ADP, LTA","2.25 h, All",87 ± 8%
same,"IPA, 20 μM ADP, LTA","2.25 h, All",83 ± 14%
same,"PR, 5 μM ADP, LTA","2.25 h, All",7 ± 5%
same,"PR, 20 μM ADP, LTA","2.25 h, All",12 ± 11%
same,"IPA, 5 μM ADP, LTA","2.25 h, Ticagrelor at 0.5 h",84 ± 10%
same,"IPA, 20 μM ADP, LTA","2.25 h, Ticagrelor at 0.5 h",82 ± 13%
same,"PR, 5 μM ADP, LTA","2.25 h, Ticagrelor at 0.5 h",7.7 ± 5.9%
same,"PR, 20 μM ADP, LTA","2.25 h, Ticagrelor at 0.5 h",13 ± 9.3%
same,"IPA, 5 μM ADP, LTA","2.25 h, Ticagrelor at 1.25 h",89 ± 5%
same,"IPA, 20 μM ADP, LTA","2.25 h, Ticagrelor at 1.25 h",84 ± 17%
same,"PR, 5 μM ADP, LTA","2.25 h, Ticagrelor at 1.25 h",5.3 ± 3.6%
same,"PR, 20 μM ADP, LTA","2.25 h, Ticagrelor at 1.25 h",11 ± 12%
same,"IPA, 5 μM ADP, LTA","2.5 h, All",79 ± 15%
same,"IPA, 20 μM ADP, LTA","2.5 h, All",72 ± 26%
same,"PR, 5 μM ADP, LTA","2.5 h, All",10 ± 7%
same,"PR, 20 μM ADP, LTA","2.5 h, All",19 ± 16%
same,"IPA, 5 μM ADP, LTA","2.5 h, Ticagrelor at 0.5 h",82 ± 13%
same,"IPA, 20 μM ADP, LTA","2.5 h, Ticagrelor at 0.5 h",78 ± 21%
same,"PR, 5 μM ADP, LTA","2.5 h, Ticagrelor at 0.5 h",10 ± 5.7%
same,"PR, 20 μM ADP, LTA","2.5 h, Ticagrelor at 0.5 h",16 ± 15%
same,"IPA, 5 μM ADP, LTA","2.5 h, Ticagrelor at 1.25 h",76 ± 18%
same,"IPA, 20 μM ADP, LTA","2.5 h, Ticagrelor at 1.25 h",65 ± 30%
same,"PR, 5 μM ADP, LTA","2.5 h, Ticagrelor at 1.25 h",11 ± 9%
same,"PR, 20 μM ADP, LTA","2.5 h, Ticagrelor at 1.25 h",21 ± 17%
same,"IPA, 5 μM ADP, LTA","2.75 h, All",86 ± 11%
same,"IPA, 20 μM ADP, LTA","2.75 h, All",86 ± 15%
same,"PR, 5 μM ADP, LTA","2.75 h, All",5.8 ± 3%
same,"PR, 20 μM ADP, LTA","2.75 h, All",10 ± 9.2%
same,"IPA, 5 μM ADP, LTA","2.75 h, Ticagrelor at 0.5 h",87 ± 7%
same,"IPA, 20 μM ADP, LTA","2.75 h, Ticagrelor at 0.5 h",84 ± 15%
same,"PR, 5 μM ADP, LTA","2.75 h, Ticagrelor at 0.5 h",6.7 ± 4.1%
same,"PR, 20 μM ADP, LTA","2.75 h, Ticagrelor at 0.5 h",12 ± 11%
same,"IPA, 5 μM ADP, LTA","2.75 h, Ticagrelor at 1.25 h",85 ± 15%
same,"IPA, 20 μM ADP, LTA","2.75 h, Ticagrelor at 1.25 h",87 ± 15%
same,"PR, 5 μM ADP, LTA","2.75 h, Ticagrelor at 1.25 h",4.8 ± 0.8%
same,"PR, 20 μM ADP, LTA","2.75 h, Ticagrelor at 1.25 h",7.8 ± 7.2%
same,"IPA, 5 μM ADP, LTA","3 h, All",86 ± 17%
same,"IPA, 20 μM ADP, LTA","3 h, All",90 ± 9%
same,"PR, 5 μM ADP, LTA","3 h, All",5.5 ± 5.2%
same,"PR, 20 μM ADP, LTA","3 h, All",7.1 ± 6.3%
same,"IPA, 5 μM ADP, LTA","3 h, Ticagrelor at 0.5 h",85 ± 15%
same,"IPA, 20 μM ADP, LTA","3 h, Ticagrelor at 0.5 h",87 ± 10%
same,"PR, 5 μM ADP, LTA","3 h, Ticagrelor at 0.5 h",8 ± 6.5%
same,"PR, 20 μM ADP, LTA","3 h, Ticagrelor at 0.5 h",10 ± 7.6%
same,"IPA, 5 μM ADP, LTA","3 h, Ticagrelor at 1.25 h",87 ± 21%
same,"IPA, 20 μM ADP, LTA","3 h, Ticagrelor at 1.25 h",93 ± 7%
same,"PR, 5 μM ADP, LTA","3 h, Ticagrelor at 1.25 h",3 ± 1.5%
same,"PR, 20 μM ADP, LTA","3 h, Ticagrelor at 1.25 h",4.5 ± 3.4%
same,"IPA, 5 μM ADP, LTA","4 h, All",88 ± 9%
same,"IPA, 20 μM ADP, LTA","4 h, All",94 ± 4%
same,"PR, 5 μM ADP, LTA","4 h, All",5.5 ± 3.3%
same,"PR, 20 μM ADP, LTA","4 h, All",4.6 ± 3.6%
same,"IPA, 5 μM ADP, LTA","4 h, Ticagrelor at 0.5 h",87 ± 5%
same,"IPA, 20 μM ADP, LTA","4 h, Ticagrelor at 0.5 h",91 ± 4%
same,"PR, 5 μM ADP, LTA","4 h, Ticagrelor at 0.5 h",7.3 ± 3.9%
same,"PR, 20 μM ADP, LTA","4 h, Ticagrelor at 0.5 h",6.7 ± 3.7%
same,"IPA, 5 μM ADP, LTA","4 h, Ticagrelor at 1.25 h",89 ± 12%
same,"IPA, 20 μM ADP, LTA","4 h, Ticagrelor at 1.25 h",96 ± 4%
same,"PR, 5 μM ADP, LTA","4 h, Ticagrelor at 1.25 h",3.7 ± 1%
same,"PR, 20 μM ADP, LTA","4 h, Ticagrelor at 1.25 h",2.5 ± 1.9%
same,residual platelet reactivity,"12 hours after the last dose of ticagrelor, study day 5",12±9%
same,residual platelet reactivity,"at 2.5 hr, ticagrelor 180 mg given at 0.5 hr of 2 hr cangrelor infusion",16±15%
same,"IPA, 5 μM ADP, LTA","reference 5.25 h, All",94 ± 5%
same,"IPA, 20 μM ADP, LTA","reference 5.25 h, All",95 ± 4%
same,"PR, 5 μM ADP, LTA","reference 5.25 h, All",3.1 ± 2.8%
same,"PR, 20 μM ADP, LTA","reference 5.25 h, All",4 ± 3.4%
same,"IPA, 5 μM ADP, LTA",[1],92 ± 6%
same,"IPA, 20 μM ADP, LTA",[1],92 ± 4%
same,"PR, 5 μM ADP, LTA",[1],4.2 ± 2%
same,"PR, 20 μM ADP, LTA",[1],5.8 ± 3.1%
same,"IPA, 5 μM ADP, LTA",[2],97 ± 4%
same,"IPA, 20 μM ADP, LTA",[2],97 ± 4%
same,"PR, 5 μM ADP, LTA",[2],2 ± 2.3%
same,"PR, 20 μM ADP, LTA",[2],2.2 ± 2.7%
same,extent of inhibition,[3],82±13%
same,residual platelet reactivity,[3],13±9.3%
same,extent of inhibition,[4],93±7%
same,residual platelet reactivity,[4],4.5±3.4%
